Source: publication PMC7031302, “Design and synthesis of new energy restriction mimetic agents: Potent anti-tumor activities of hybrid motifs of aminothiazoles and coumarins” (Scientific Reports, 2020)
Where two headings read alike, the source gives them in different places.

Key:
Format in all cases: cell-based, Human
HCT116 = experiment: MTT cell viability, HCT116; details: for IC50: read-out: half-maximal inhibitory concentration (IC50) HCT116
Experimental: (§1) The potential cytotoxicity of 24 candidate compounds was initially evaluated at a single concentration level (5 μM). Then a full dose-response curve was plotted for each compound against different colorectal cancer cell lines (HCT116 and HT-29) by MTT assay after 72 h treatments. 4-hydroxycoumarin, OSU-CG5, and OSU-CG12 were used as positive controls. […] Compounds 9b, 9c, 9f, 9i, 11b, and 11c were selected for further studies to determine the full dose-response survival curves using different concentrations (0.1–20 µM) against CRC cell lines and normal fibroblast cell line (F180) at different time points (Fig. 2A–2F and supplementary material Page S63 and S64).
(§2) Human colorectal carcinoma cell lines (HCT116) and (HT-29) were obtained from the European Collection of Cell Cultures (ECACC, UK). The cell lines were cultured in Roswell Park Memorial Institute medium (RPMI-1640, Sigma-Aldrich-St. Louis, MO, USA) supplemented with 10% fetal bovine serum (Sigma-Aldrich-St. Louis, MO, USA) and 1% penicillin/streptomycin (Sigma-Aldrich- Louis, MO, USA). F180 cell line (Human Normal Fibroblast), was kindly given by professor Ekkehard Dikomey (University Cancer Center, Hamburg University, Hamburg, Germany) and were cultured in Dulbecco’s Modified Eagle’s medium (DMEM, Sigma-Aldrich-St. Louis, MO, USA) supplemented with 10% fetal bovine serum (Sigma-Aldrich-St. Louis, MO, USA) and 1% penicillin/streptomycin (Sigma-Aldrich- Louis, MO, USA). All cell incubations were done at 37 °C in a humidified atmosphere of 5% CO2.
(§3) Cell viability was assessed using, 3-(4,5-dimethylthiazol-2-yl)-2,5-diphenyltetrazolium bromide (MTT) assay as previously described. In summary, cancer cell lines or F180 were seeded in complete medium at the density of 3 × 10^3/well and 5 × 10^3/well respectively in 96 well flat-bottom plates. After 24 h, cells were incubated with the candidate compounds at the indicated concentration for (24, 48 or 72 h). DMSO was used as vehicle control and 4-Hydroxycoumarin was purchased from (Sigma-Aldrich, St. Louis, MO, USA) and Cisplatin from Hospira UK Ltd. At the end of treatment, the media were aspirated from each well and incubated with 200 µL of MTT tetrazolium dye (Sigma-Aldrich, St. Louis, MO, USA) at a final concentration of 0.5 mg/ml for 2 h at 37 °C. The reduced MTT crystals were solubilized in 200 µl/well of DMSO and the absorbance was measured at 570 nm using a microplate reader (Thermo-Scientific, Vantaa, Finland).

HT-29 = experiment: MTT cell viability, HT-29; details: for IC50: read-out: half-maximal inhibitory concentration (IC50) HT-29
Experimental: as §1, §2, §3

[1] = test system: colorectal cancer cell lines, HCT116 and HT-29; experiment: MTT cell viability, colorectal cancer cell lines (summary statements); details: for anticancer activities in initial screening, in words: HT-29 and HCT116 cancer cell lines; for IC50: both cell lines, summary statement
Experimental: as §1, §2, §3

[2] = Homo sapiens, HT-29, 72 h, 72 h, MTT assay, mean ± SD (n = 6)
[3] = Homo sapiens, HCT-116, 72 h, 72 h, MTT assay, mean ± SD (n = 6)
[4] = 72 h, MTT assay, mean ± SD (n = 6)

| SMILES | IC50 (HT-29; [2]) | IC50 (HCT116; [3]) | further results |
| --- | --- | --- | --- |
| O=c1cc(O)c2ccccc2o1 [4-Hydroxycoumarin, reference compound] | – | – | IC50 (HCT116; Homo sapiens, HCT-116, 72 h): > 200 µM; IC50 (HT-29; Homo sapiens, HT-29, 72 h): > 200 µM |
| Cc1cc(=O)oc2cc(Nc3nc(-c4ccccc4)cs3)ccc12 [Compound 9a, 4-Methyl-7-(4-phenylthiazol-2-ylamino)-2H-chromen-2-one] | 1.54 ± 0.02 µM | – | anticancer activities in initial screening, in words [1]: significant anticancer activities |
| Cc1cc(=O)oc2cc(Nc3nc(-c4ccc(Cl)cc4)cs3)ccc12 [Compound 9c, 7-(4-(4-Chlorophenyl)thiazol-2-ylamino)-4-methyl-2H-chromen-2-one] | 0.37 ± 0.077 µM | 0.31 ± 0.014 µM | anticancer activities in initial screening, in words [1]: significant anticancer activities; IC50 [1]: < 0.6 µM |
| CCOc1ccc(-c2csc(Nc3ccc4c(C)cc(=O)oc4c3)n2)cc1 [Compound 9d, 7-(4-(4-Ethoxyphenyl)thiazol-2-ylamino)-4-methyl-2H-chromen-2-one] | 3.03 ± 0.0205 µM | 3.21 ± 0.88 µM | – |
| COc1cccc(-c2csc(Nc3ccc4c(C)cc(=O)oc4c3)n2)c1 [Compound 9e, 7-(4-(3-Methoxyphenyl)thiazol-2-ylamino)-4-methyl-2H-chromen-2-one] | 3 ± 0.159 µM | 3.05 ± 0.14 µM | – |
| Cc1cc(=O)oc2cc(Nc3nc(-c4cccc(F)c4)cs3)ccc12 [Compound 9g, 7-(4-(3-Fluorophenyl)thiazol-2-ylamino)-4-methyl-2H-chromen-2-one] | 2.91 ± 1.25 µM | 3.5 ± 0.93 µM | – |
| Cc1cc(=O)oc2cc(Nc3nc(-c4ccccc4[N+](=O)[O-])cs3)ccc12 [Compound 9h, 4-Methyl-7-(4-(2-nitrophenyl)thiazol-2-ylamino)-2H-chromen-2-one] | > 30 µM | > 30 µM | – |
| COc1ccccc1-c1csc(Nc2ccc3c(C)cc(=O)oc3c2)n1 [Compound 9i, 7-(4-(2-Methoxyphenyl)thiazol-2-ylamino)-4-methyl-2H-chromen-2-one] | 0.32 ± 0.017 µM | 0.32 ± 0.041 µM | anticancer activities in initial screening, in words [1]: significant anticancer activities; IC50 [1]: < 0.6 µM |
| CCc1cc(=O)oc2cc(Nc3nc(-c4ccccc4)cs3)ccc12 [Compound 10a, 4-Ethyl-7-(4-phenylthiazol-2-ylamino)-2H-chromen-2-one] | > 30 µM | > 30 µM | – |
| CCc1cc(=O)oc2cc(Nc3nc(-c4ccc(Br)cc4)cs3)ccc12 [Compound 10b, 7-(4-(4-Bromophenyl)thiazol-2-ylamino)-4-ethyl-2H-chromen-2-one] | 2.97 ± 0.2 µM | 3.03 ± 2.25 µM | – |
| CCc1cc(=O)oc2cc(Nc3nc(-c4ccc(Cl)cc4)cs3)ccc12 [Compound 10c, 7-(4-(4-Chlorophenyl)thiazol-2-ylamino)-4-ethyl-2H-chromen-2-one] | 1.3 ± 0.127 µM | 3.54 ± 0.53 µM | – |
| CCc1cc(=O)oc2cc(Nc3nc(-c4cccc(OC)c4)cs3)ccc12 [Compound 10e, 4-Ethyl-7-(4-(3-methoxyphenyl)thiazol-2-ylamino)-2H-chromen-2-one] | 13.1 ± 1.39 µM | > 30 µM | – |
| CCc1cc(=O)oc2cc(Nc3nc(-c4cccc([N+](=O)[O-])c4)cs3)ccc12 [Compound 10f, 4-Ethyl-7-(4-(3-nitrophenyl)thiazol-2-ylamino)-2H-chromen-2-one] | 4.41 ± 1.37 µM | 10.3 ± 3.15 µM | – |
| CCc1cc(=O)oc2cc(Nc3nc(-c4cccc(F)c4)cs3)ccc12 [Compound 10g, 4-Ethyl-7-(4-(3-fluorophenyl)thiazol-2-ylamino)-2H-chromen-2-one] | 2.34 ± 0.615 µM | 4.08 ± 2.68 µM | – |
| CCc1cc(=O)oc2cc(Nc3nc(-c4ccccc4[N+](=O)[O-])cs3)ccc12 [Compound 10h, 4-Ethyl-7-(4-(2-nitrophenyl)thiazol-2-ylamino)-2H-chromen-2-one] | 1.68 ± 0.47 µM | 4.73 ± 1.93 µM | – |
| CCc1cc(=O)oc2cc(Nc3nc(-c4ccccc4OC)cs3)ccc12 [Compound 10i, 4-Ethyl-7-(4-(2-methoxyphenyl)thiazol-2-ylamino)-2H-chromen-2-one] | 3.96 ± 1.65 µM | 13.5 ± 0.2 µM | – |
| CCCc1cc(=O)oc2cc(Nc3nc(-c4ccccc4)cs3)ccc12 [Compound 11a, 7-(4-Phenylthiazol-2-ylamino)-4-propyl-2H-chromen-2-one] | 2.13 ± 0.3 µM | 6.76 ± 0.28 µM | – |
| CCCc1cc(=O)oc2cc(Nc3nc(-c4ccc(Br)cc4)cs3)ccc12 [Compound 11b, 7-(4-(4-Bromophenyl)thiazol-2-ylamino)-4-propyl-2H-chromen-2-one] | 0.25 ± 0.004 µM | 0.26 ± 0.016 µM | anticancer activities in initial screening, in words [1]: significant anticancer activities; IC50 [1]: < 0.6 µM |
| CCCc1cc(=O)oc2cc(Nc3nc(-c4ccc(Cl)cc4)cs3)ccc12 [Compound 11c, 7-(4-(4-Chlorophenyl)thiazol-2-ylamino)-4-propyl-2H-chromen-2-one] | 0.33 ± 0.032 µM | 0.34 ± 0.0009 µM | anticancer activities in initial screening, in words [1]: significant anticancer activities; IC50 [1]: < 0.6 µM |
| CCCc1cc(=O)oc2cc(Nc3nc(-c4cccc(OC)c4)cs3)ccc12 [Compound 11e, 7-(4-(3-Methoxyphenyl)thiazol-2-ylamino)-4-propyl-2H-chromen-2-one] | 8.89 ± 0.813 µM | 28.6 ± 6.56 µM | – |
| CCCc1cc(=O)oc2cc(Nc3nc(-c4cccc([N+](=O)[O-])c4)cs3)ccc12 [Compound 11f, 7-(4-(3-Nitrophenyl)thiazol-2-ylamino)-4-propyl-2H-chromen-2-one] | 3.66 ± 0.038 µM | > 30 µM | – |
| CCCc1cc(=O)oc2cc(Nc3nc(-c4cccc(F)c4)cs3)ccc12 [Compound 11g, 7-(4-(3-Fluorophenyl)thiazol-2-ylamino)-4-propyl-2H-chromen-2-one] | 1.8 ± 0.76 µM | 4.08 ± 1.36 µM | – |
| CCCc1cc(=O)oc2cc(Nc3nc(-c4ccccc4[N+](=O)[O-])cs3)ccc12 [Compound 11h, 7-(4-(2-Nitrophenyl)thiazol-2-ylamino)-4-propyl-2H-chromen-2-one] | 3.96 ± 0.014 µM | 6.3 ± 0.605 µM | – |
| CCC(CC)CN1C(=O)S/C(=C\c2ccc(O)c(C(F)(F)F)c2)C1=O [OSU-CG5, reference compound] | – | – | IC50 (HCT116; [4]): 2.85 ± 0.111 µM; IC50 (HT-29; [4]): 10.1 ± 0.373 µM |
| N.N.[Cl][Pt][Cl] [cisplatin, Cisplatin, reference compound] | – | – | IC50 of cisplatin as a single compound, HCT116 (HCT116; single compound, 72 h MTT): 1.93 µg/mL; IC50 of cisplatin as a single compound, HT-29 (HT-29; single compound, 72 h MTT): 1.81 µg/mL |
